In US11883398B2, “Dipeptidylpeptidase 4 inhibition enhances lymphocyte trafficking, improving both naturally occurring tumor immunity and immunotherapy” (INSTITUT PASTEUR, priority 2015, dated 2024):

Assays:
[1] = target: T1, mDPP4 (Mus musculus, UniProt P28843); experiment: DPP4 processing of recombinant chemokines (SELDI-TOF mass spectrometry); type: biochemical; conditions: 10 nM mDPP4, 30 min at 37° C.
T1 construct: purchased Peprotech
Procedure: Recombinant mDPP4, mCXCL10, mCXCL9, mCXCL11, mCCL2, mCCL3, mCCL4, mCCL5, mCXCL12 and mCCL22 were purchased from Peprotech. For surface-enhanced laser desorption/ionization-[…] (SELDI-TOF) mass spectrometry, chemokines were incubated in the presence or absence of 10 nM of mDPP4 for 30 min at 37° C. The digested product was applied onto an H4 protein chip, following the manufacturer's instructions and analyzed using the PROTEINCHIP™ SYSTEMS SERIES 4000 (Ciphergen). Data were analyzed using CIPHERGENEXPRESS Software.

[2] = system: DPP8/9 over-expressing cells; conditions: cited from earlier work; for selectivity for DPP4 over DPP8 and 9: Huan et al. 2015; for selectivity towards DPP4: Madar et al. 2006, Gilibili et al. 2015
[3] = target: DPP8 (Homo sapiens, UniProt Q6V1X1); conditions: Verspohl 2012; Huan et al. 2015; cited from earlier work
[4] = target: DPP9 (Homo sapiens, UniProt Q86TI2); conditions: Verspohl 2012; Huan et al. 2015; cited from earlier work
[5] = system: DASH proteases; conditions: WO2013/078059; Narra et al. 2007; cited from earlier work
[6] = system: B16F10 tumors; experiment: Flow cytometry of leukocytes infiltrating B16F10 tumors; type: in vivo, mouse; conditions: day 7 B16F10 tumors, 12-14 h after injection
Procedure: B16F10 and M04 (Ovalbumin-expressing B16F10 cells, gift from C. Reis e Sousa) tumor cells were cultured in DMEM (Gibco) supplemented with 10% FCS (PAA), 0.1 mM non-essential amino acids, 1 mM sodium pyruvate, 10 mM Hepes, 70 μM beta-mercaptoethanol and 23 μg/ml gentamycin (all from Gibco). CT26 colon carcinoma cells were cultured in RPMI (Gibco) supplemented as described for DMEM. Cells for injections were passaged 1-2 times after thawing, before use. WT and genetically modified mice were subcutaneously injected with 2×10^5 B16 or 5×10^5 CT26 cells in the shaved right flank. When indicated, mice received an intra-tumoral injection of 1 μg of recombinant mCXCL10, 5 μg CpG-A in DOPTAP or vehicle control. For blocking of chemokine and chemokine receptors, WT mice were intraperitoneally injected with 100 μg of hamster a-mCXCR3 (clone CXCR3-173, BioLegend), 100 μg of hamster α-mCCR5 (clone HM-CCR5, BioLegend), 50 μg of rat anti-mCXCL10 (clone 134013, R&D systems) and 20 μg of rat-α-mCXCR4 (clone 2B11/CXCR4, BD Biosciences) or with respective isotype antibodies (hamster IgG (clone HTK888, BioLegend, used as control for mCXCR3 and mCCR5 blockage); rat IgG2a (clone 54447, R&D systems, used as control for mCXCL10 blockade) and rat IgG2b (clone A95-1, BD Biosciences, used as control for mCXCR4 blockade). Intraperitoneal injection was done one day before and 4, 8 and 12 days after tumor cell injection. For CXCL10 neutralization, antibodies were injected on day 2, 5, 8 and 11 after tumor cell injection. For immunotherapy protocols, mice were intraperitoneally injected with 100 μg of mouse α-CTLA-4 (clone 9D9, Bioxcell), 200 μg of PD1 (clone RMP1-14, Bioxcell), a combination of 100 μg of α-CTLA-4+200 μg of a-PD1 or control isotypes (100 μg […] and 200 μg rat IgG2a (clone 2A3), both from Bioxcell) on day 3, 6 and 9 after tumor cell implantation. For adoptive cell transfer experiments, Pmel-1 Thy-1.1^+Thy-1.1^+, Cxcr3^−/− Thy-1.1^+Thy-1.2^+ Pmel-1 or OT1 splenocytes were activated ex-vivo, by incubation with 1 nM of human gp100 (for Pmel-1 cells) or […] (for OT1 cells) peptides for 1h at room temperature with agitation. Splenocytes were then washed and resuspended in R10 supplemented with 30U/mL of recombinant human IL-2. CD8^+ T cells were expanded for 6-7 days before used. For analysis of tumor infiltrates, activated Cxcr3^+/+ Thy-1.1^+Thy-1.1^+ and Cxcr3^−/− Thy-1.1^+Thy-1.2^+ transgenic Pmel-1 CD8^+ T cells were mixed in a 1:1 ratio (total 1×10^6 cells) and injected intravenously into gender matched tumor-bearing mice (3 days after tumor cell injection). For analysis of tumor growth, activated OT1 cells were injected intravenously (1×10^5 cells per mouse) into gender matched tumor-bearing mice, 3 days after tumor cell injection. Tumor height and width were measured with a caliper and tumor volume was calculated (Elliptical volume=width^2×height×0.523). The model of metastatic melanoma was achieved by intravenous injection of 2×10^5 B16 tumor cells. 15 days after tumor cell injection, lungs were dissected, placed in Fekete's solution and metastatic foci were counted. Lungs with more than 100 metastatic nodules were defined as 100.
Fluorochrome-conjugated anti-mouse CD3 (clone145-2C11), CD8 (clone 53-6.7), CD4 (clone RM4-5), NK1.1 (clone PK136), CD49b (clone DX5), CD25 (clone PC61), B220 (clone RA3-6B2), Ly6G (clone 1A8), Ly6C (clone AL-21), CD11 b (clone M1/70) Siglec-F (clone E50-2440), MHCII IA-IE (clone M5/114.15.2), CD45.2 (clones 56-0454-82 and 109830), Thy-1.1 (clone HIS51), Thy-1.2 (clone 53-2.1), DPP4 (clone H194-112) and CXCR3 (clone CXCR3-173) were from eBiosciences and BD Biosciences. Fluorochrome conjugated anti-F4/80 (clone CI:A3-1) was from AbDserotec. For exclusion of dead cells, Live/Dead fixable Aqua reagent (Invitrogen) was used. For all staining protocols, cell suspensions were incubated with mouse CD16/CD32 Fc Blocking antibodies (BD Biosciences) prior to antibody. […]

[7] = system: CXCR3-expressing T cells; experiment: Model of trafficking into the peritoneal cavity; type: in vivo, mouse; conditions: 1 μg chemokine intraperitoneally
Procedure: WT and Dpp4^−/− mice were intraperitoneally injected with PBS or 1 μg of mCXCL10, mCXCL9 or mCCL5 (all from Peprotech). At the indicated time points, mice were sacrificed and peritoneal cells were collected in 10 mL of PBS. For thioglycollate induced peritonitis mice were intraperitoneally injected with thioglycollate 3% weight/volume, 24 hours before collection of peritoneal cells.
Fluorochrome-conjugated anti-mouse CD3 (clone145-2C11), CD8 (clone 53-6.7), CD4 (clone RM4-5), NK1.1 (clone PK136), CD49b (clone DX5), CD25 (clone PC61), B220 (clone RA3-6B2), Ly6G (clone 1A8), Ly6C (clone AL-21), CD11 b (clone M1/70) Siglec-F (clone E50-2440), MHCII IA-IE (clone M5/114.15.2), CD45.2 (clones 56-0454-82 and 109830), Thy-1.1 (clone HIS51), Thy-1.2 (clone 53-2.1), DPP4 (clone H194-112) and CXCR3 (clone CXCR3-173) were from eBiosciences and BD Biosciences. Fluorochrome conjugated anti-F4/80 (clone CI:A3-1) was from AbDserotec. For exclusion of dead cells, Live/Dead fixable Aqua reagent (Invitrogen) was used. For all staining protocols, cell suspensions were incubated with mouse CD16/CD32 Fc Blocking antibodies (BD Biosciences) prior to antibody. For analysis of peritoneal cavity infiltrates, cells were washed and incubated with a cocktail of fluorochrome-conjugated antibodies. For analysis of tumor infiltrates, B16F10 tumors were collected at the indicated time points and digested in PBS supplemented with 2.7 mg/ml of Collagenase (Roche) and 23U/ml of Deoxyribonuclease I (Invitrogen) for 30 min, 37° C. Digestion was terminated by adding PBS supplemented with 2% FCS and 5 mM EDTA (Gibco). Tumor cell suspensions were obtained after filtration over a 70 μm cell strainer. For determination of cell numbers, the […] COUNTING BEADS reagent (Invitrogen) was used. Flow cytometry was performed using a BD LSRFORTESSA or a BD CANTO cytometer, with DIVA software. Computer analysis was done with FLOWJO (Treestar).

T1 sequence (P28843 whole entry): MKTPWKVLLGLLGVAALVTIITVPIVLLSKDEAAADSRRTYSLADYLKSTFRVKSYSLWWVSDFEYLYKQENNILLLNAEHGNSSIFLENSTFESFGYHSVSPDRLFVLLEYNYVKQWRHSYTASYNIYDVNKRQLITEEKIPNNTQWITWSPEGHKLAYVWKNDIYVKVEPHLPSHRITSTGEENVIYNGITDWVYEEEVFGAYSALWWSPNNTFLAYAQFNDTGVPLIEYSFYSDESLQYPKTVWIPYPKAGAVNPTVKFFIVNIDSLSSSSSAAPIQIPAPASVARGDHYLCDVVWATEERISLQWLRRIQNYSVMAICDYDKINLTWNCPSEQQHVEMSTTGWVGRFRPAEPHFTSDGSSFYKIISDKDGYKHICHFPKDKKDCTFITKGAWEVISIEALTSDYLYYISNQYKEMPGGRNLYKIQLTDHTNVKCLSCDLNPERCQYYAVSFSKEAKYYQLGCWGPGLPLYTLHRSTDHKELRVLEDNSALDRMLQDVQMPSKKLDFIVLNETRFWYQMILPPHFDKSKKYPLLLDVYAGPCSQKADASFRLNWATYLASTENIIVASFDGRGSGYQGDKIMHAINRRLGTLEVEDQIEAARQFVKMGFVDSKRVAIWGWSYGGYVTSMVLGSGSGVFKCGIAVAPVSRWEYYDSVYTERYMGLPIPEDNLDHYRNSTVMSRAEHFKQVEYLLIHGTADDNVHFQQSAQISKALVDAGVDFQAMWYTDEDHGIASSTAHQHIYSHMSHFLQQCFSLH
Sequence of DPP8 (Q6V1X1 whole entry, species assumed): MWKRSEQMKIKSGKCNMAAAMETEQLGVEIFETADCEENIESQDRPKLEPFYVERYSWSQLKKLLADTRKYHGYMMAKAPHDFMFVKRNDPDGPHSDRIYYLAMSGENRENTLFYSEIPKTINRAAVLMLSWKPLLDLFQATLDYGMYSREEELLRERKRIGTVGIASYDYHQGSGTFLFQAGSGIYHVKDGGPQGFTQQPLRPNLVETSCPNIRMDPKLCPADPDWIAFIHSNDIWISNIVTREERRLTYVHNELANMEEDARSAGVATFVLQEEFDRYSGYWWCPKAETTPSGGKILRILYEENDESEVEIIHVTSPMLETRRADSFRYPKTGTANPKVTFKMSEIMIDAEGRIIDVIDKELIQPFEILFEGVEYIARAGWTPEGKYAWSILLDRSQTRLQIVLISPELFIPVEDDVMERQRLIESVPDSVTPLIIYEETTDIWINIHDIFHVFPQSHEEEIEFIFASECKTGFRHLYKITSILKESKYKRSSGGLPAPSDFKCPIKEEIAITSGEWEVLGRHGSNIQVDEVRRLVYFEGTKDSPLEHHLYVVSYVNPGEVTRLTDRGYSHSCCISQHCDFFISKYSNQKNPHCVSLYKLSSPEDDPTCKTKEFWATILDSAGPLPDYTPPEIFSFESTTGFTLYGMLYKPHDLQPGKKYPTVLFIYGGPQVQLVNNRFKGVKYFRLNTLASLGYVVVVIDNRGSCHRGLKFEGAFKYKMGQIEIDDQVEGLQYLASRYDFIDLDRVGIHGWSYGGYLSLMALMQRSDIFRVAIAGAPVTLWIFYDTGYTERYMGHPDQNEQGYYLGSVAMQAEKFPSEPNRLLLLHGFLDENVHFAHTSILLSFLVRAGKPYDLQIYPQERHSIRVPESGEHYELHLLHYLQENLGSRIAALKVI
Sequence of DPP9 (Q86TI2 whole entry, species assumed): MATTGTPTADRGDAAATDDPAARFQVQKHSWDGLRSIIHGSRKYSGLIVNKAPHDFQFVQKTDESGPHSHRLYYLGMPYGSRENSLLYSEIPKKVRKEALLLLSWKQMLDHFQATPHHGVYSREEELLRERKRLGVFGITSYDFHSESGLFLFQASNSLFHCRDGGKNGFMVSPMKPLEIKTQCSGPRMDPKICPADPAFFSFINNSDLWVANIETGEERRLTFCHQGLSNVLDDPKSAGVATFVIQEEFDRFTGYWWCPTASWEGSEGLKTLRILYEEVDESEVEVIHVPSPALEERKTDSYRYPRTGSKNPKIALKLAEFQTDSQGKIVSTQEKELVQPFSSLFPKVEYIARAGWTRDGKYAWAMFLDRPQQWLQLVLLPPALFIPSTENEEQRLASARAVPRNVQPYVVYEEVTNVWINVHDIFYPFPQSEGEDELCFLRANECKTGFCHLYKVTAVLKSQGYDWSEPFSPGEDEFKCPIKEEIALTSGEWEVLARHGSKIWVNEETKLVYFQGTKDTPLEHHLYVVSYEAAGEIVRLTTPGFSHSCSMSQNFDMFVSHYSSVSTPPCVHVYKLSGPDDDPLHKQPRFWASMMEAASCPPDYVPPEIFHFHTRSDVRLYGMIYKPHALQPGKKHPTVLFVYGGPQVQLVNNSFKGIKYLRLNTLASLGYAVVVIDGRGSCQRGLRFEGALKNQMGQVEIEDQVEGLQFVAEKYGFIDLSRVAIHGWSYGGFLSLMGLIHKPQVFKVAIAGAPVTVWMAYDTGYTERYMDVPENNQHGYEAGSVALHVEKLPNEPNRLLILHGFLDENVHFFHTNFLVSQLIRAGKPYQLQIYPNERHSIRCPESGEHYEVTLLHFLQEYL

mCCL2: recombinant mouse chemokine (Peprotech)
susceptibility to DPP4 N-terminal truncation [1]: in vitro cleavage

COc1cc2c(cc1OC)[C@@H]1C[C@H](N)[C@@H](N3C[C@@H](CF)CC3=O)CN1CC2 [carmegliptin]
selectivity for DPP4 over DPP8 and 9 [2]: highly-selective inhibitors of DPP4
selectivity towards DPP4 [2]: highly selective towards DPP4

Cn1c(=O)cc(N2CCC[C@@H](N)C2)n(Cc2ccccc2C#N)c1=O [alogliptin]
effect on DPP8 activity [3]: no effect
effect on DPP9 activity [4]: no effect

CC(C)[C@H](N)C(=O)N1CCC[C@H]1B(O)O [Val-boroPro]
inhibition of DASH proteases [5]: inhibiting a multitude of DASH proteases

CC(C)(C)[C@H](N)C(=O)N1CCC[C@H]1B(O)O [ARI-4175]
inhibition of DASH proteases [5]: inhibiting a multitude of DASH proteases

C#C[C@H]1CC[C@@H](C#N)N1C(=O)CNC1(C)CCN(c2cc(C(=O)O)ccn2)CC1 [ABT-279]
selectivity for DPP4 over DPP8 and 9 [2]: highly-selective inhibitors of DPP4
selectivity towards DPP4 [2]: highly selective towards DPP4

N#C[C@@H]1C[C@H](F)CN1C(=O)[C@@H](N)C(c1ccc(F)cc1)c1ccc(F)cc1 [denagliptin]
selectivity for DPP4 over DPP8 and 9 [2]: highly-selective inhibitors of DPP4
selectivity towards DPP4 [2]: highly selective towards DPP4

N[C@H]1CC(C(=O)N2CCn3c(nnc3C(F)(F)F)C2)=CC[C@@H]1c1cc(F)c(F)cc1F [ABT-341]
selectivity for DPP4 over DPP8 and 9 [2]: highly-selective inhibitors of DPP4
selectivity towards DPP4 [2]: highly selective towards DPP4

mCXCL12: recombinant mouse chemokine (Peprotech)
susceptibility to DPP4 N-terminal truncation [1]: in vitro cleavage

B1: mCCL22: recombinant mouse chemokine (Peprotech) (protein, UniProt O88430 25-92, looked up)
C-C motif chemokine 22: GPYGANVEDSICCQDYIRHPLPSRLVKEFFWTSKSCRKPGVVLITVKNRDICADPRQVWVKKLLHKLS
susceptibility to DPP4 N-terminal truncation [1]: in vitro cleavage

B2: mCXCL10: recombinant full length mouse CXCL10 (Peprotech) (protein, UniProt P17515 22-98, looked up)
C-X-C motif chemokine 10: IPLARTVRCNCIHIDDGPVRMRAIGKLEIIPASLSCPRVEIIATMKKNDEQRCLNPESKTIKNLMKAFSQKRSKRAP
lymphocyte recruitment into the tumor parenchyma after intratumoral mCXCL10 [6]: no increase in lymphocyte migration
infiltration of CXCR3-expressing T cells into the peritoneal cavity in control mice ([7]; control chow): failed to induce significant infiltration of CXCR3-expressing T cells
susceptibility to DPP4 N-terminal truncation [1]: sensitive to DPP4 N-terminal truncation

B3: mCCL4: recombinant mouse chemokine (Peprotech) (protein, UniProt P14097 24-92, looked up)
C-C motif chemokine 4: APMGSDPPTSCCFSYTSRQLHRSFVMDYYETSSLCSKPAVVFLTKRGRQICANPSEPWVTEYMSDLELN
susceptibility to DPP4 N-terminal truncation [1]: in vitro cleavage

B4: mCCL3: recombinant mouse chemokine (Peprotech) (protein, UniProt P10855 24-92, looked up)
C-C motif chemokine 3: APYGADTPTACCFSYSRKIPRQFIVDYFETSSLCSQPGVIFLTKRNRQICADSKETWVQEYITDLELNA
susceptibility to DPP4 N-terminal truncation [1]: in vitro cleavage

B5: mCXCL9: recombinant mouse chemokine (Peprotech) (protein, UniProt P18340 22-126, looked up)
C-X-C motif chemokine 9: TLVIRNARCSCISTSRGTIHYKSLKDLKQFAPSPNCNKTEIIATLKNGDQTCLDPDSANVKKLMKEWEKKISQKKKQKRGKKHQKNMKNRKPKTPQSRRRSRKTT
chemokine-induced leukocyte migration into the peritoneal cavity ([7]; WT and Dpp4-/- mice, 6 h): migration of NK cells into the peritoneal cavity
susceptibility to DPP4 N-terminal truncation [1]: insensitive to DPP4-mediated truncation
